Measurements reported in ChEMBL document CHEMBL5505975, “Design, synthesis and biological evaluation of CDC20 inhibitors for treatment of triple-negative breast cancer” (Eur J Med Chem, 2024).
pIC50: −log10 of the molar value.

What was measured:
MDA-MB-231 = experiment: Antiproliferative activity against human MDA-MB-231 cells assessed as reduction in cell viability incubated for 96 hrs by MTT assay; settings: MDA-MB-231, 96 h
A549 = experiment: Antiproliferative activity against human A549 cells assessed as reduction in cell viability incubated for 96 hrs by MTT assay; settings: A549, 96 h
[1] = Cytotoxicity against human L02 cells assessed as reduction in cell viability incubated for 96 hrs by MTT assay; type: toxicity, cell-based
MCF7 = experiment: Antiproliferative activity against human MCF7 cells assessed as reduction in cell viability incubated for 96 hrs by MTT assay; settings: MCF7, 96 h
MDA-MB-468 = experiment: Antiproliferative activity against human MDA-MB-468 cells assessed as reduction in cell viability incubated for 96 hrs by MTT assay; settings: MDA-MB-468, 96 h

Row | SMILES | pIC50 (MDA-MB-231) | pIC50 (A549) | IC50 at 96 h [1] [µM] | pIC50 (MCF7) | pIC50 (MDA-MB-468)
1 | CCC(=O)NC(n1cnc2c(Nc3ccc(C(F)(F)F)cc3)nc(N)nc21)C(Cl)(Cl)Cl (stereo not given) | 5.02 | 4.98 | 12.3 | 4.99 | 4.95
2 | COc1cc(Nc2nc(NC(NC(=O)C3CCCCC3)C(Cl)(Cl)Cl)nc3[nH]ccc23)cc(OC)c1 (stereo not given) | < 4.70 | < 4.70 | > 20 | < 4.70 | < 4.70
3 | CCC(=O)NC(Nc1nc(Nc2cc(OC)cc(OC)c2)c2cc[nH]c2n1)C(Cl)(Cl)Cl (stereo not given) | < 4.70 | < 4.70 | > 20 | < 4.70 | < 4.70
4 | CCCCCC(=O)NC(Nc1nc(Nc2cc(OC)cc(OC)c2)c2cc[nH]c2n1)C(Cl)(Cl)Cl (stereo not given) | < 4.70 | < 4.70 | > 20 | < 4.70 | < 4.70
5 | O=C(NC(Nc1nc(Nc2ccc(C(F)(F)F)cc2)c2cc[nH]c2n1)C(Cl)(Cl)Cl)C1CCCCC1 (stereo not given) | 5.06 | 5.03 | 11.6 | 5.09 | 5.04
6 | CCCCCC(=O)NC(Nc1nc(Nc2cc(OC)c(OC)c(OC)c2)c2cc[nH]c2n1)C(Cl)(Cl)Cl (stereo not given) | 5.08 | 4.97 | 12.3 | 4.78 | 4.82
7 | CCC(=O)NC(Nc1nc(Nc2cc(OC)c(OC)c(OC)c2)c2cc[nH]c2n1)C(Cl)(Cl)Cl (stereo not given) | 5.06 | 4.94 | 9.01 | 4.83 | 4.80
8 | CCCCCC(=O)NC(Nc1nc(Nc2ccc(C(F)(F)F)cc2)c2cc[nH]c2n1)C(Cl)(Cl)Cl (stereo not given) | 5.21 | 5.08 | 14.4 | 5.16 | 4.92
9 | CCC(=O)NC(Nc1nc(Nc2ccc(OC)cc2)c2cc[nH]c2n1)C(Cl)(Cl)Cl (stereo not given) | < 4.70 | < 4.70 | > 20 | < 4.70 | < 4.70
10 | CCC(=O)NC(n1cnc2c(Nc3cc(OC)cc(OC)c3)nc(N)nc21)C(Cl)(Cl)Cl (stereo not given) | < 4.70 | < 4.70 | > 20 | < 4.70 | < 4.70
11 | CCCC(=O)NC(Nc1nc(Nc2cc(OC)c(OC)c(OC)c2)c2cc[nH]c2n1)C(Cl)(Cl)Cl (stereo not given) | 5.00 | < 4.70 | 14.4 | 4.71 | 4.77
12 | O=C(NC(Nc1nccc(Nc2ccc(C(F)(F)F)cc2)n1)C(Cl)(Cl)Cl)C1CC1 (stereo not given) | < 4.70 | < 4.70 | > 20 | < 4.70 | < 4.70
13 | CCC(=O)NC(Nc1nc(Nc2ccc(C(F)(F)F)cc2F)c2cc[nH]c2n1)C(Cl)(Cl)Cl (stereo not given) | 4.90 | 4.95 | 14 | 4.87 | 4.85
14 | CCC(=O)NC(Nc1nc(Nc2ccc(C(F)(F)F)nc2)c2cc[nH]c2n1)C(Cl)(Cl)Cl (stereo not given) | 4.70 | < 4.70 | > 20 | < 4.70 | < 4.70
15 | CCC(=O)NC(Nc1nc(Nc2ccc(OC)c(OC)c2)c2cc[nH]c2n1)C(Cl)(Cl)Cl (stereo not given) | < 4.70 | < 4.70 | > 20 | < 4.70 | < 4.70
16 | CCCC(=O)NC(Nc1nc(Nc2cc(OC)cc(OC)c2)c2cc[nH]c2n1)C(Cl)(Cl)Cl (stereo not given) | < 4.70 | < 4.70 | > 20 | < 4.70 | < 4.70
17 | CCC(=O)NC(n1cnc2c(Nc3ccc(OC)c(Cl)c3)nc(N)nc21)C(Cl)(Cl)Cl (stereo not given) | < 4.70 | < 4.70 | > 20 | < 4.70 | < 4.70

Row | SMILES | pIC50 (MDA-MB-231) | pIC50 (A549) | IC50 at 96 h [1] [µM] | pIC50 (MCF7) | pIC50 (MDA-MB-468)
18 | COc1cc(Nc2nc(NC(NC(=O)C3CCCCC3)C(Cl)(Cl)Cl)nc3[nH]ccc23)cc(OC)c1OC (stereo not given) | 4.94 | 4.97 | 14 | 4.86 | 4.91
19 | CCC(=O)NC(Nc1nc(Nc2ccc3scnc3c2)c2cc[nH]c2n1)C(Cl)(Cl)Cl (stereo not given) | < 4.70 | < 4.70 | > 20 | < 4.70 | < 4.70
20 | CCC(=O)NC(n1cnc2c(Nc3ccc(OC)cc3)nc(N)nc21)C(Cl)(Cl)Cl (stereo not given) | < 4.70 | < 4.70 | > 20 | < 4.70 | < 4.70
21 | CCCc1ccc(Nc2nc(NC(NC(=O)CC)C(Cl)(Cl)Cl)nc3[nH]ccc23)cc1 (stereo not given) | < 4.70 | < 4.70 | > 20 | < 4.70 | < 4.70
22 | CCC(=O)NC(Nc1nc(Nc2ccc(C(F)(F)F)cc2)c2cc[nH]c2n1)C(Cl)(Cl)Cl (stereo not given) | 5.11 | 5.10 | 12.8 | 5.21 | 5.00
23 | O=C(NC(Nc1nc(Nc2ccc(C(F)(F)F)cc2)c2cc[nH]c2n1)C(Cl)(Cl)Cl)C1CC1 (stereo not given) | 5.22 | 5.18 | 16.1 | 5.17 | 4.99
24 | CCCCC(=O)NC(Nc1nc(Nc2ccc(C(F)(F)F)cc2)c2cc[nH]c2n1)C(Cl)(Cl)Cl (stereo not given) | 5.13 | 5.14 | 8.85 | 5.12 | 4.88
25 | CCC(=O)NC(n1cnc2c(Nc3ccc4c(c3)OCO4)nc(N)nc21)C(Cl)(Cl)Cl (stereo not given) | < 4.70 | < 4.70 | > 20 | < 4.70 | < 4.70
26 | CCCC(=O)NC(Nc1nc(Nc2ccc(C(F)(F)F)cc2)c2cc[nH]c2n1)C(Cl)(Cl)Cl (stereo not given) | 5.14 | 5.14 | 10.2 | 5.18 | 5.02
27 | CCCCC(=O)NC(Nc1nc(Nc2cc(OC)c(OC)c(OC)c2)c2cc[nH]c2n1)C(Cl)(Cl)Cl (stereo not given) | 4.98 | 4.84 | > 20 | 4.71 | < 4.70
28 | CCC(=O)NC(Nc1nc(Nc2cc(F)c(OC)c(F)c2)c2cc[nH]c2n1)C(Cl)(Cl)Cl (stereo not given) | 5.09 | 5.06 | 14.5 | 5.14 | 4.98
29 | CCC(=O)NC(Nc1nc(Nc2ccc(OC)c(Cl)c2)c2cc[nH]c2n1)C(Cl)(Cl)Cl (stereo not given) | < 4.70 | < 4.70 | > 20 | < 4.70 | < 4.70
30 | CCCCC(=O)NC(Nc1nc(Nc2cc(OC)cc(OC)c2)c2cc[nH]c2n1)C(Cl)(Cl)Cl (stereo not given) | < 4.70 | < 4.70 | > 20 | < 4.70 | < 4.70
31 | CCC(=O)NC(Nc1nc(Nc2ccc(C(F)(F)F)cc2Cl)c2cc[nH]c2n1)C(Cl)(Cl)Cl (stereo not given) | 4.90 | 5.16 | 14.5 | 4.75 | < 4.70
32 | CCC(=O)NC(Nc1nc(Nc2ccc(OC(F)(F)F)cc2)c2cc[nH]c2n1)C(Cl)(Cl)Cl (stereo not given) | 4.79 | 4.95 | 25.3 | 4.93 | 4.74
33 | CCC(=O)NC(Nc1nc(Nc2ccc(OC(F)(F)F)c(F)c2)c2cc[nH]c2n1)C(Cl)(Cl)Cl (stereo not given) | 4.99 | 5.12 | 7.55 | 5.03 | < 4.70
